Where two headings read alike, the source gives them in different places.
Columns and labels:
[1] = test system: cultured human mast cells (CHMC), ionomycin-induced degranulation; experiment: CHMC low cell density ionomycin activation: tryptase assay; format: cell-based; conditions: ionomycin activation, read-out: LD Tryptase, CHMC, Iono, 3pt
[2] = test system: cultured human mast cells (CHMC), IgE-induced degranulation; experiment: CHMC low cell density IgE activation: tryptase assay; format: cell-based
Summary of the method: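 Tryptase release read fluorogenically (30 min, room temperature) from supernatants of anti-IgE-challenged cultured human mucosal mast cells derived from umbilical cord CD34+ cells, at low density of 1000–1500 cells/well.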

[3] = CHMC low cell density, 3pt, read-out: LD Tryptase, CHMC, IgE, 3pt
[4] = CHMC low cell density, 8pt, read-out: LD Tryptase, CHMC, IgE, 8pt
[5] = low cell density CHMC, 3-point, read-out: LD Tryptase, CHMC, IgE, 3pt
[6] = low cell density CHMC, 8-point, read-out: LD Tryptase, CHMC, IgE, 8pt

| Compound | IC50 ([1]; CHMC low cell density, 3pt) [µM] | IC50 [2, 3] [µM] | IC50 [2, 4] [µM] | IC50 ([1]; low cell density CHMC, 3-point) [µM] | IC50 [2, 5] [µM] | IC50 [2, 6] [µM] |
| --- | --- | --- | --- | --- | --- | --- |
| CC1(C)Oc2ccc(Nc3nc(Nc4ccc5c(cnn5CCCNS(C)(=O)=O)c4)ncc3F)nc2NC1=O [Compound 836, N4-(2,2-Dimethyl-3-oxo-4H-5-pyrid[1,4]oxazin-6-yl)-5-fluoro-N2-[1-[3-(N-methylsulfonylamino)propyl]indazol-5-yl]-2,4-pyrimidinediamine] | > 10 | < 10 | < 10 |  |  |  |
| Cc1cc(Nc2ncc(F)c(Nc3ccc4c(n3)NC(=O)C(C)(C)O4)n2)cc(Cl)c1O [Compound 996, N2-(3-Chloro-4-hydroxy-5-methylphenyl)-N4-(2,2-dimethyl-3-oxo-4H-5-pyrid[1,4]oxazin-6-yl)-5-fluoro-2,4-pyrimidinediamine] | > 10 | < 10 | < 10 |  |  |  |
| CNC(=O)COc1cccc(Nc2ncc(F)c(Nc3ccc4c(c3)NCC(C)(C)O4)n2)c1 [Compound 1000, N4-(3,4-Dihydro-2,2-dimethyl-4H-benz[1,4]oxazin-6-yl)-5-fluoro-N2-[3-(N-methylamino)carbonylmethyleneoxyphenyl]-2,4-pyrimidinediamine] | < 10 |  | < 10 |  |  |  |
| Cc1ccccc1Nc1ncc(F)c(Nc2ccc3c(n2)NC(=O)C(C)(C)O3)n1 [Compound 1004, N4-(2,2-Dimethyl-3-oxo-4H-5-pyrid[1,4]oxazin-6-yl)-5-fluoro-N2-(2-methylphenyl)-2,4-pyrimidinediamine] | > 10 | < 10 |  |  |  |  |
| CN1C(=O)C(C)(C)Oc2ccc(N(C)c3nc(Cl)ncc3F)nc21 [Compound 1005, 2-Chloro-5-fluoro-N4-methyl-N4-(3-oxo-2,2,4-trimethyl-5-pyrid[1,4]oxazin-6-yl)-4-pyrimdinea mine] | > 10 | < 10 |  |  |  |  |
| CN1C(=O)C(C)(C)Oc2ccc(Nc3nc(Cl)ncc3F)nc21 [Compound 1006, 2-Chloro-5-fluoro-N4-(3-oxo-2,2,4-trimethyl-5-pyrid[1,4]oxazin-6-yl)-4-pyrimidinea mine] | > 10 | > 10 |  |  |  |  |
| COc1c(C)cc(Nc2ncc(F)c(Nc3ccc4c(n3)N(C)C(=O)C(C)(C)O4)n2)cc1Cl [Compound 1009, N2-(3-Chloro-4-methoxy-5-methylphenyl)-5-fluoro-N4-(3-oxo-2,2,4-trimethyl-5-pyrid[1,4]oxazin-6-yl)-2,4-pyrimidinediamine] | > 10 | < 10 | < 10 |  |  |  |
| CCOc1c(C)cc(Nc2ncc(F)c(Nc3ccc4c(n3)NC(=O)C(C)(C)O4)n2)cc1Cl [Compound 1010, N2-(3-Chloro-4-ethoxy-5-methylphenyl)-N4-(2,2-dimethyl-3-oxo-4H-5-pyrid[1,4]oxazin-6-yl)-5-fluoro-2,4-pyrimidinediamine] | > 10 | < 10 |  |  |  |  |
| CN1C(=O)C(C)(C)Oc2ccc(Nc3nc(Nc4cccc(-c5ncco5)c4)ncc3F)nc21 [Compound 1012, 5-Fluoro-N2-[3-(oxazol-2-yl)phenyl]-N4-[3-oxo-2,2,4-trimethyl-5-pyrid[1,4]oxazin-6-yl]-2,4-pyrimidinediamine] | > 10 | < 10 | < 10 |  |  |  |
| CN1C(=O)C(C)(C)Oc2ccc(Nc3nc(Nc4ccc(-c5ncco5)cc4)ncc3F)nc21 [Compound 1013, 5-Fluoro-N2-[4-(oxazol-2-yl)phenyl]-N4-[3-oxo-2,2,4-trimethyl-5-pyrid[1,4]oxazin-6-yl]-2,4-pyrimidinediamine] | > 10 | < 10 |  |  |  |  |
| CCOC(=O)COc1c(C)cc(Nc2ncc(F)c(Nc3ccc4c(c3)NC(=O)C(C)(C)O4)n2)cc1Cl [Compound 1014, N2-[3-Chloro-4-ethoxycarbonylmethyleneoxy-5-methylphenyl]-N4-(2,2-dimethyl-3-oxo-4H-benz[1,4]oxazin-6-yl)-5-fluoro-2,4-pyrimidinediamine] |  |  |  | < 10 | < 10 | < 10 |
| CNC(=O)COc1cccc(Nc2ncc(F)c(Nc3ccc4c(n3)N(C)C(=O)C(C)(C)O4)n2)c1 [Compound 1015, 5-Fluoro-N2-[3-(N-methylamino)carbonylmethyleneoxyphenyl]-N4-[3-oxo-2,2,4-trimethyl-5-pyrid[1,4]oxazin-6-yl]-2,4-pyrimidinediamine] |  |  |  | > 10 | < 10 | < 10 |
| CN1C(=O)C(C)(C)Oc2ccc(Nc3nc(Nc4cccc(-c5cnco5)c4)ncc3F)nc21 [Compound 1017, 5-Fluoro-N2-[3-(oxazol-5-yl)phenyl]-N4-[3-oxo-2,2,4-trimethyl-5-pyrid[1,4]oxazin-6-yl]-2,4-pyrimidinediamine] |  |  |  | > 10 | < 10 | < 10 |
| CNC(=O)COc1cccc(Nc2ncc(F)c(N(C)c3ccc4c(c3)NC(=O)C(C)(C)O4)n2)c1 [Compound 1022, N4-(2,2-Dimethyl-3-oxo-4H-benz[1,4]oxazin-6-yl)-5-fluoro-N4-methyl-N2-[3-(N-methylamino)carbonylmethyleneoxyphenyl]-2,4-pyrimidinediamine] |  |  |  | > 10 | < 10 | < 10 |
| Cc1cc(Nc2ncc(F)c(Nc3ccc4c(n3)NC(=O)C(C)(C)O4)n2)cc(Cl)c1OC1CCCC1 [Compound 1027, N2-(3-Chloro-4-cyclopentyloxy-5-methylphenyl)-N4-(2,2-dimethyl-3-oxo-4H-5-pyrid[1,4]oxazin-6-yl)-5-fluoro-2,4-pyrimidinediamine] |  |  |  | > 10 | < 10 |  |
| CC1(C)Oc2ccc(Nc3nc(Nc4cccc(-c5ncco5)c4)ncc3F)nc2NC1=O [Compound 1028, N4-(2,2-Dimethyl-3-oxo-4H-5-pyrid[1,4]oxazin-6-yl)-5-fluoro-N2-[3-(oxazol-2-yl)phenyl]-2,4-pyrimidinediamine] |  |  |  | > 10 | < 10 | < 10 |
| CC1(C)Oc2ccc(Nc3nc(Nc4cccc(-c5cocn5)c4)ncc3F)nc2NC1=O [Compound 1029, N4-(2,2-Dimethyl-3-oxo-4H-5-pyrid[1,4]oxazin-6-yl)-5-fluoro-N2-[3-(oxazol-4-yl)phenyl]-2,4-pyrimidinediamine] |  |  |  | > 10 | < 10 | < 10 |
| CNC(=O)COc1c(C)cc(Nc2ncc(F)c(Nc3ccc4c(n3)NC(=O)C(C)(C)O4)n2)cc1Cl [Compound 1037, N2-[3-Chloro-5-methyl-4-(N-methylamino)carbonylmethyleneoxyphenyl]-N4-(2,2-dimethyl-3-oxo-4H-5-pyrid[1,4]oxazin-6-yl)-5-fluoro-2,4-pyrimidinediamine] |  |  |  | > 10 |  | < 10 |
| CCOC(=O)COc1c(C)cc(Nc2ncc(F)c(Nc3ccc4c(n3)NC(=O)C(C)(C)O4)n2)cc1C [Compound 1038, N2-(3,5-Dimethyl-4-ethoxycarbonylmethyleneoxyphenyl)-N4-(2,2-dimethyl-3-oxo-4H-5-pyrid[1,4]oxazin-6-yl)-5-fluoro-2,4-pyrimidinediamine] |  |  |  | > 10 |  | < 10 |
| Cc1cc(Nc2ncc(F)c(Nc3ccc4c(n3)NC(=O)C(C)(C)O4)n2)cc(Cl)c1OC(C)C [Compound 1040, N2-(3-Chloro-4-isopropoxy-5-methylphenyl)-N4-(2,2-dimethyl-3-oxo-4H-5-pyrid[1,4]oxazin-6-yl)-5-fluoro-2,4-pyrimidinediamine] |  |  |  | < 10 |  | > 10 |

Reference: patent publication US7560466B2, “Methods of treating or preventing autoimmune diseases with 2,4-pyrimidinediamine compounds” (Rigel Pharmaceuticals, Inc., priority 2003, dated 2009)
